According to ChEMBL document CHEMBL1649500, “GS-9191 is a novel topical prodrug of the nucleotide analog 9-(2-phosphonylmethoxyethyl)guanine with antiproliferative activity and possible utility in the treatment of human papillomavirus lesions” (Antimicrob Agents Chemother, 2009):
Calls of active or inactive are those of the source. The calls are words filed in the database; no cut-off is given here.

Assays:
SiHa [1] = experiment: Inhibition of DNA synthesis in HPV-transformed human SiHa cells assessed as decrease in BrdU incorporation after 48 to 51 hrs by ELISA; format: functional, cell-based
[2] = Antiproliferative activity against NHBE cells after 7 days by SRB assay; format: cell-based; conditions: Homo sapiens, 168 h
SiHa [3] = experiment: Induction of apoptosis in HPV-transformed human SiHa cells assessed as apoptotic cells at 270 nM after 7 days by propidium iodide staining-based flow cytometry; format: functional
SiHa [4] = experiment: Inhibition of DNA synthesis in HPV-transformed human SiHa cells assessed as decrease in BrdU incorporation after 3 hrs by ELISA; format: functional, cell-based
[5] = Drug metabolism in human CaSki cells assessed as PMEG AUC (0 to 32 hrs) at 1 uM by HPLC analysis; format: ADME, cell-based; design: time < 32 hr, dose 1 uM; conditions: ca-ski
SiHa [6] = experiment: Induction of apoptosis in HPV-transformed human SiHa cells assessed as apoptotic cells at 2.7 nM after 3 days by propidium iodide staining-based flow cytometry; format: functional
[7] = Cell cycle arrest in human PHK cells assessed as accumulation at G2/M phase at 10 times EC50 after 48 hrs by flow cytometry; format: cell-based
[8] = Antiproliferative activity against HPV-transformed human C4I cells after 7 days by SRB assay; format: functional, cell-based; conditions: C-4I, 168 h
SiHa [9] = experiment: Induction of apoptosis in HPV-transformed human SiHa cells assessed as viable cells at 2.7 nM after 3 days by propidium iodide staining-based flow cytometry; format: functional; conditions: 72 h, read-out: Activity
[10] = system: Cottontail rabbit papillomavirus; experiment: Antiviral activity against Cottontail rabbit papillomavirus infected in New Zealand White rabbit assessed as decrease in pailloma size at 0.1% administered topically measured on day 48; format: functional, Kappapapillomavirus 2
Ca-Ski [11] = experiment: Antiproliferative activity against HPV-transformed human CaSki cells after 7 days by SRB assay; format: functional, cell-based; conditions: 168 h
SCC-4 = experiment: Antiproliferative activity against HPV-non-transformed human SCC4 cells after 7 days by SRB assay; format: functional, cell-based; conditions: SCC-4, 168 h
[12] = system: Cottontail rabbit papillomavirus; experiment: Antiviral activity against Cottontail rabbit papillomavirus infected in New Zealand White rabbit assessed as decrease in pailloma size at 0.01% administered topically measured on day 48; format: functional, Kappapapillomavirus 2
[13] = Cell cycle arrest in human PHK cells assessed as accumulation at G0/G1 phase at 10 times EC50 after 48 hrs by flow cytometry; format: cell-based
SiHa [14] = experiment: Induction of apoptosis in HPV-transformed human SiHa cells assessed as viable cells at 27 nM after 7 days by propidium iodide staining-based flow cytometry; format: functional; conditions: 168 h, read-out: Activity
HT-3 = experiment: Antiproliferative activity against HPV-non-transformed human HT3 cells after 7 days by SRB assay; format: functional, cell-based; conditions: HT-3, 168 h
SiHa [15] = experiment: Inhibition of DNA synthesis in HPV-transformed human SiHa cells assessed as decrease in BrdU incorporation after 6 to 9 hrs by ELISA; format: functional, cell-based
[16] = Antiproliferative activity against human CK after 7 days by SRB assay
SiHa [17] = experiment: Inhibition of DNA synthesis in HPV-transformed human SiHa cells assessed as decrease in BrdU incorporation after 24 to 27 hrs by ELISA; format: functional, cell-based
SiHa [18] = experiment: Antiproliferative activity against HPV-transformed human SiHa cells after 7 days by SRB assay; format: functional, cell-based; conditions: 168 h
SiHa [19] = experiment: Induction of apoptosis in HPV-transformed human SiHa cells assessed as viable cells at 270 nM after 3 days by propidium iodide staining-based flow cytometry; format: functional; conditions: 72 h, read-out: Activity
SiHa [20] = experiment: Induction of apoptosis in HPV-transformed human SiHa cells assessed as viable cells at 27 nM after 3 days by propidium iodide staining-based flow cytometry; format: functional; conditions: 72 h, read-out: Activity
SiHa [21] = experiment: Induction of apoptosis in HPV-transformed human SiHa cells assessed as apoptotic cells at 27 nM after 7 days by propidium iodide staining-based flow cytometry; format: functional
[22] = system: Cottontail rabbit papillomavirus; experiment: Antiviral activity against Cottontail rabbit papillomavirus infected in New Zealand White rabbit assessed as effect on viral growth rate at 0.5% administered topically measured on day 48; format: functional; conditions: Kappapapillomavirus 2
A-431 = experiment: Cell cycle arrest in human A431 cells assessed as accumulation at S phase at 10 times EC50 after 48 hrs by flow cytometry; format: functional, cell-based
SiHa [23] = experiment: Cell cycle arrest in HPV-transformed human SiHa cells assessed as accumulation at S phase at 10 times EC50 after 48 hrs by flow cytometry; format: functional
[24] = Antiproliferative activity against human PHK after 7 days by SRB assay
[25] = Drug metabolism in human lung fibroblast assessed as cPrPMEDAP AUC (0 to 32 hrs) at 1 uM by HPLC analysis; format: ADME; design: dose 1 uM, time < 32 hr
SiHa [26] = experiment: Induction of apoptosis in HPV-transformed human SiHa cells assessed as viable cells at 270 nM after 7 days by propidium iodide staining-based flow cytometry; format: functional; conditions: 168 h, read-out: Activity
[27] = Cell cycle arrest in human PHK cells assessed as accumulation at S phase at 10 times EC50 after 48 hrs by flow cytometry; format: cell-based
Ca-Ski [28] = experiment: Induction of apoptosis in HPV-transformed human CaSki cells at 2.7 to 270 nM after 3 to 7 days by propidium iodide staining-based flow cytometry; format: functional, cell-based
SCC-9 = experiment: Antiproliferative activity against HPV-non-transformed human SCC9 cells after 7 days by SRB assay; format: functional, cell-based; conditions: SCC-9, 168 h
SiHa [29] = experiment: Induction of apoptosis in HPV-transformed human SiHa cells assessed as apoptotic cells at 2.7 nM after 7 days by propidium iodide staining-based flow cytometry; format: functional
SiHa [30] = experiment: Drug metabolism in human SiHa cells assessed as PMEG AUC (0 to 32 hrs) at 1 uM by HPLC analysis; format: ADME, cell-based; design: dose 1 uM, time < 32 hr
HeLa [31] = experiment: Antiproliferative activity against HPV-transformed human HeLa cells after 7 days by SRB assay; format: functional, cell-based; conditions: 168 h
ME-180 = experiment: Antiproliferative activity against HPV-transformed human ME180 cells after 7 days by SRB assay; format: functional, cell-based; conditions: ME-180, 168 h
SiHa [32] = experiment: Cell cycle arrest in HPV-transformed human SiHa cells assessed as accumulation at G2/M phase at 10 times EC50 after 48 hrs by flow cytometry; format: functional
SiHa [33] = experiment: Induction of apoptosis in HPV-transformed human SiHa cells assessed as viable cells at 2.7 nM after 7 days by propidium iodide staining-based flow cytometry; format: functional; conditions: 168 h, read-out: Activity
SiHa [34] = experiment: Cell cycle arrest in HPV-transformed human SiHa cells assessed as accumulation at G0/G1 phase at 10 times EC50 after 48 hrs by flow cytometry; format: functional
HeLa [35] = experiment: Induction of apoptosis in HPV-transformed human HeLa cells at 2.7 to 270 nM after 3 to 7 days by propidium iodide staining-based flow cytometry; format: functional, cell-based
[36] = Antiproliferative activity against PHF after 7 days by SRB assay; design: species or system Homo sapiens
SiHa [37] = experiment: Inhibition of DNA synthesis in HPV-transformed human SiHa cells assessed as decrease in BrdU incorporation after 3 to 6 hrs by ELISA; format: functional, cell-based
[38] = system: Cottontail rabbit papillomavirus; experiment: Antiviral activity against Cottontail rabbit papillomavirus infected in New Zealand White rabbit assessed as decrease in pailloma size at 0.3% administered topically measured on day 48; format: functional, Kappapapillomavirus 2
SiHa [39] = experiment: Inhibition of DNA synthesis in HPV-transformed human SiHa cells assessed as decrease in BrdU incorporation after 72 to 75 hrs by ELISA; format: functional, cell-based
Ca-Ski [40] = experiment: Cell cycle arrest in HPV-transformed human CaSki cells assessed as accumulation at S phase at 10 times EC50 after 48 hrs by flow cytometry; format: functional, cell-based
[41] = Antiproliferative activity against HPV-transformed human MS751 cells after 7 days by SRB assay; format: functional, cell-based; conditions: MS751, 168 h
SiHa [42] = experiment: Induction of apoptosis in HPV-transformed human SiHa cells assessed as apoptotic cells at 27 nM after 3 days by propidium iodide staining-based flow cytometry; format: functional
SiHa [43] = experiment: Induction of apoptosis in HPV-transformed human SiHa cells assessed as apoptotic cells at 270 nM after 3 days by propidium iodide staining-based flow cytometry; format: functional
[44] = Drug metabolism in human CK cells assessed as PMEG AUC (0 to 32 hrs) at 1 uM by HPLC analysis; format: ADME, cell-based; design: time < 32 hr, dose 1 uM
[45] = Antiproliferative activity against human lung fibroblast after 7 days by SRB assay; conditions: 168 h

CC(C)COC(=O)[C@H](Cc1ccccc1)NP(=O)(COCCn1cnc2c(NC3CC3)nc(N)nc21)N[C@@H](Cc1ccccc1)C(=O)OCC(C)C [GS-9191]
EC50 (SiHa [1]): 7.9 nM | EC50 [2]: 0.98 nM | Activity (SiHa [3]): 84.1% | EC50 (SiHa [4]): > 74 nM | AUC [5]: 170 µM·h | Activity (SiHa [6]): 3.4% | Activity [7]: 7.5% | EC50 [8]: 0.44 nM | viability at 0.0027 µM (SiHa [9]): 95.2% | inhibition (INH) [10]: 70% | EC50 (Ca-Ski [11]): 2.03 nM | EC50 (SCC-4): 5.03 nM | inhibition (INH) [12]: 53% | Activity [13]: 56.4% | viability at 0.027 µM (SiHa [14]): 17.4% | EC50 (HT-3): 5.42 nM | EC50 (SiHa [15]): 1 nM | EC50 [16]: 2.1 nM | EC50 (SiHa [17]): 1.8 nM | EC50 (SiHa [18]): 0.03 nM | viability at 0.27 µM (SiHa [19]): 79.6% | viability at 0.027 µM (SiHa [20]): 83.7% | Activity (SiHa [21]): 82.2% | Activity [22]: inactive | Activity (A-431): Active | Activity (SiHa [23]): 65.6% | EC50 [24]: 2.91 nM | AUC [25]: 835 µM·h | viability at 0.27 µM (SiHa [26]): 15.5% | Activity [27]: 36.1% | Activity (Ca-Ski [28]): Active | EC50 (SCC-9): 15.3 nM | Activity (SiHa [29]): 33.1% | AUC (SiHa [30]): 1960 µM·h | EC50 (HeLa [31]): 0.71 nM | EC50 (ME-180): 1.83 nM | Activity (SiHa [32]): 7.3% | viability at 0.0027 µM (SiHa [33]): 65.5% | Activity (SiHa [34]): 27.1% | Activity (HeLa [35]): Active | EC50 [36]: 4.75 nM | EC50 (SiHa [37]): 7.8 nM | inhibition (INH) [38]: 70% | EC50 (SiHa [39]): 11.5 nM | Activity (Ca-Ski [40]): Active | EC50 [41]: 0.04 nM | Activity (SiHa [42]): 14.6% | Activity (SiHa [43]): 19.6% | AUC [44]: 33.4 µM·h | EC50 [45]: 7.44 nM
